Several values for one entry are separate records, joined by “and”; a condition that tells them apart may be missing. Equal values may be shown once. Toxic doses and inconclusive results are not listed.
System: CD2F1 mice, L1210 leukemia ip, survival T/C
Assay: NCI In Vivo Anticancer Drug Screen. Data for tumor model L1210 Leukemia (intraperitoneal) in CD2F1 (CDF1) mice
Conditions: endpoint: mean survival time, higher = longer survival
How it was run: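 Vehicle-treated tumor-bearing mice served as controls (C) for compound-treated mice (T). Reported figure is T divided by C.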

[1] = dose: 12.5 mg/kg/injection, schedule: Q01DX005 (ip), vehicle: distilled water + Tween-80
[2] = dose: 25.0 mg/kg/injection, schedule: Q01DX005 (ip), vehicle: distilled water + Tween-80
[3] = dose: 50.0 mg/kg/injection, schedule: Q01DX005 (ip), vehicle: distilled water + Tween-80
[4] = dose: 100.0 mg/kg/injection, schedule: Q01DX005 (ip), vehicle: distilled water + Tween-80
[5] = dose: 100.0 mg/kg/injection, schedule: Q01DX009 (ip), vehicle: saline with Tween-80
[6] = dose: 200.0 mg/kg/injection, schedule: Q01DX009 (ip), vehicle: saline with Tween-80
[7] = dose: 400.0 mg/kg/injection, schedule: Q01DX009 (ip), vehicle: saline with Tween-80
[8] = dose: 12.5 mg/kg/injection, schedule: Q01DX009 (ip), vehicle: saline with Tween-80
[9] = dose: 25.0 mg/kg/injection, schedule: Q01DX009 (ip), vehicle: saline with Tween-80
[10] = dose: 100.0 mg/kg/injection, schedule: Q04DX003 (ip), vehicle: saline with Tween-80
[11] = dose: 200.0 mg/kg/injection, schedule: Q04DX003 (ip), vehicle: saline with Tween-80
[12] = dose: 400.0 mg/kg/injection, schedule: Q04DX003 (ip), vehicle: saline with Tween-80
[13] = dose: 50.0 mg/kg/injection, schedule: Q01DX001 (ip), vehicle: saline with Tween-80
[14] = dose: 100.0 mg/kg/injection, schedule: Q01DX001 (ip), vehicle: saline with Tween-80
[15] = dose: 100.0 mg/kg/injection, schedule: Q04DX003 (ip), vehicle: Klucel (hydroxypropylcellulose) (HPC)
[16] = dose: 200.0 mg/kg/injection, schedule: Q04DX003 (ip), vehicle: Klucel (hydroxypropylcellulose) (HPC)
[17] = dose: 400.0 mg/kg/injection, schedule: Q04DX003 (ip), vehicle: Klucel (hydroxypropylcellulose) (HPC)

With `O=C(Nc1ccc(S(=O)(=O)N2CCCCC2)cc1)Oc1ccc([N+](=O)[O-])cc1` the T/C (dose: 5.0 mg/kg/injection, schedule: Q01DX001 (ip), vehicle: other) was 97 % of control, the T/C (dose: 10.0 mg/kg/injection, schedule: Q01DX001 (ip), vehicle: other) was 108 % of control and the T/C (dose: 20.0 mg/kg/injection, schedule: Q01DX001 (ip), vehicle: other) was 100 % of control. The T/C (dose: 40.0 mg/kg/injection, schedule: Q01DX001 (ip), vehicle: other) was 100 % of control and the T/C (dose: 80.0 mg/kg/injection, schedule: Q01DX001 (ip), vehicle: other) was 96 % of control.

In the case of `Nc1nc2c(ncn2C2CC3[O][Sn]([c]4ccccc4)([c]4ccccc4)[O]CC3O2)c(=O)[nH]1` (stereo unspecified), the T/C (dose: 6.25 mg/kg/injection, schedule: Q01DX005 (ip), vehicle: distilled water + Tween-80) is reported as 104 % of control, the T/C [1] is reported as 93 % of control and the T/C [2] is reported as 93 % of control. The T/C [3] was 90 % of control and the T/C [4] was 106 % of control.

`N=C(N)c1cn(C2OC(CO)C(O)C2O)c2ncnc(N)c12` (stereo unspecified) was tested, and the T/C (dose: 0.63 mg/kg/injection, schedule: Q01DX009 (ip), vehicle: saline) was 123 % of control and the T/C (dose: 2.5 mg/kg/injection, schedule: Q01DX009 (ip), vehicle: saline) was 124 % of control.

For `COC(=O)/C=C(\C)C(=O)OC`, the T/C [5] was 100 % of control, the T/C [6] was 94 % of control and the T/C [7] was 96 % of control.

In the case of `CC(=C(C#N)C#N)c1ccccc1`, the T/C [8] is reported as 92 % of control, the T/C [9] is reported as 89 % of control and the T/C (dose: 50.0 mg/kg/injection, schedule: Q01DX009 (ip), vehicle: saline with Tween-80) is reported as 87 % of control.

`O=[N+]([O-])/C=C\c1ccccc1` was tested, and the T/C [10] was 96 % of control, the T/C [11] was 90 % of control and the T/C [12] was 86 % of control.

`CCCCCCC(Sc1n[nH]c(=O)[nH]c1=O)C(=O)OCC` (stereo unspecified) was tested, and the T/C [1] was 97 % of control, the T/C [2] was 102 % of control and the T/C [3] was 102 % of control. For the same compound, the T/C [4] was 96 % of control and the T/C (dose: 200.0 mg/kg/injection, schedule: Q01DX005 (ip), vehicle: distilled water + Tween-80) was 97 % of control.

In the case of `COC1OC(CO)C(O)C1n1cnc2c(=O)[nH]c(N)nc21` (stereo unspecified), the T/C [13] is reported as 97 % of control, the T/C [14] is reported as 95 % of control and the T/C (dose: 200.0 mg/kg/injection, schedule: Q01DX001 (ip), vehicle: saline with Tween-80) is reported as 97 % of control.

`COc1ccc(/C=N/NC(=O)CNC(=O)c2ccccc2)cc1` was tested, and the T/C [5] was 92 % of control and the T/C [7] was 88 % of control.

In the case of `O=C(O)c1ccccc1C(=O)Nc1cccc(Cl)c1`, the T/C [15] is reported as 110 % of control, the T/C [16] is reported as 93 % of control and the T/C [17] is reported as 98 % of control.

`CC(C)(CCC(=O)c1ccccc1)C(=O)O` was tested, and the T/C [10] was 90 % of control, the T/C [11] was 94 % of control and the T/C [12] was 87 % of control.

With `CCOC(=O)N1Cc2cc3ccccc3nc2C1` the T/C (dose: 75.0 mg/kg/injection, schedule: Q01DX009 (ip), vehicle: saline with Tween-80) was 100 % of control and the T/C (dose: 150.0 mg/kg/injection, schedule: Q01DX009 (ip), vehicle: saline with Tween-80) was 101 % of control.

For `O=S(CC(O)c1ccccc1)c1ccccc1` (stereo unspecified), the T/C [10] was 93 % of control and the T/C [11] was 102 % of control.

For `C/C(=N/NC(=O)c1ccccc1)c1ccccc1O`, the T/C (dose: 100.0 mg/kg/injection, schedule: Q01DX009 (ip), vehicle: Klucel (hydroxypropylcellulose) (HPC)) was 92 % of control, the T/C [15] was 97 % of control and the T/C (dose: 200.0 mg/kg/injection, schedule: Q01DX009 (ip), vehicle: Klucel (hydroxypropylcellulose) (HPC)) was 94 % of control. The T/C [16] was 100 % of control, the T/C (dose: 400.0 mg/kg/injection, schedule: Q01DX009 (ip), vehicle: Klucel (hydroxypropylcellulose) (HPC)) was 94 % of control and the T/C [17] was 96 % of control.

For `O=c1[nH]c(=O)n(C2OC(CO)C(O)C2O)o1` (stereo unspecified), the T/C (dose: 12.5 mg/kg/injection, schedule: Q01DX005 (ip), vehicle: water) was 93 % of control, the T/C (dose: 25.0 mg/kg/injection, schedule: Q01DX005 (ip), vehicle: water) was 101 % of control and the T/C (dose: 50.0 mg/kg/injection, schedule: Q01DX005 (ip), vehicle: water) was 90 % of control. For the same compound, the T/C (dose: 100.0 mg/kg/injection, schedule: Q01DX005 (ip), vehicle: water) was 98 % of control and the T/C (dose: 200.0 mg/kg/injection, schedule: Q01DX005 (ip), vehicle: water) was 96 % of control.

In the case of `Cl/C=C\C[N+]12CN3CN(CN(C3)C1)C2`, the T/C (dose: 100.0 mg/kg/injection, schedule: Q04DX003 (ip), vehicle: saline) is reported as 96 % of control.

`CC1(C)N=C(N)N=C(N)N1c1ccc(CCC(=O)Nc2ccc(S(=O)(=O)F)cc2)cc1` was tested, and the T/C [8] was 112 % of control, the T/C [9] was 117 % of control and the T/C (dose: 100.0 mg/kg/injection, schedule: Q01DX001 (ip), vehicle: saline) was 102 % of control. The T/C [5] was 115 % of control, the T/C (dose: 200.0 mg/kg/injection, schedule: Q01DX001 (ip), vehicle: saline) was 111 % of control and the T/C (dose: 200.0 mg/kg/injection, schedule: Q01DX009 (ip), vehicle: saline) was 123 % of control. The T/C (dose: 300.0 mg/kg/injection, schedule: Q01DX009 (ip), vehicle: saline) was 171 % of control, the T/C (dose: 400.0 mg/kg/injection, schedule: Q01DX001 (ip), vehicle: saline) was 120 % of control and the T/C (dose: 400.0 mg/kg/injection, schedule: Q01DX009 (ip), vehicle: saline) was 123 % of control.

With `NC(=S)c1c2ccccc2nn1C1OC(CO)C(O)C1O` (stereo unspecified) the T/C (dose: 100.0 mg/kg/injection, schedule: Q01DX005 (ip), vehicle: saline) was 98 % of control and the T/C (dose: 200.0 mg/kg/injection, schedule: Q01DX005 (ip), vehicle: saline) was 101 % of control.

`OC(c1ccccc1)(c1ccccc1)C1c2ccccc2-c2[nH]c3ccccc3c21` (stereo unspecified) was tested, and the T/C (dose: 25.0 mg/kg/injection, schedule: Q01DX001 (ip), vehicle: saline with Tween-80) was 96 % of control, the T/C [13] was 93 % of control and the T/C [14] was 89 % of control.

`C=CCn1c2ccccc2c2c(C)c3cnccc3c(C)c21` was tested, and the T/C (dose: 25.0 mg/kg/injection, schedule: Q04DX003 (ip), vehicle: saline with Tween-80) was 96 % of control and 102 % of control, the T/C (dose: 50.0 mg/kg/injection, schedule: Q04DX003 (ip), vehicle: saline with Tween-80) was 100 % of control and 102 % of control and the T/C [10] was 103 % of control and 104 % of control. The T/C [11] was 113 % of control and 116 % of control.

With `CCOC(=O)C1=C(C)NC(C)=C(C(=O)OCC)C1c1ccc(Cl)cc1` the T/C [5] was 96 % of control, the T/C [6] was 100 % of control and the T/C [7] was 96 % of control.

In the case of `O=C(O)c1ccc(O)cc1C(=O)O.[NH-]C1CCCCC1[NH-].[Pt+2]`, the T/C (dose: 1.17 mg/kg/injection, schedule: Q04DX003 (ip), vehicle: other) is reported as 168 % of control, the T/C (dose: 9.38 mg/kg/injection, schedule: Q04DX003 (ip), vehicle: other) is reported as 194 % of control and the T/C (dose: 18.75 mg/kg/injection, schedule: Q04DX003 (ip), vehicle: other) is reported as 189 % of control.

`COCCCNc1ccc([N+](=O)[O-])cn1` was tested, and the T/C (dose: 50.0 mg/kg/injection, schedule: Q01DX001 (ip), vehicle: carboxymethylcellulose (CMC)) was 100 % of control, the T/C (dose: 100.0 mg/kg/injection, schedule: Q01DX001 (ip), vehicle: carboxymethylcellulose (CMC)) was 100 % of control and the T/C (dose: 200.0 mg/kg/injection, schedule: Q01DX001 (ip), vehicle: carboxymethylcellulose (CMC)) was 108 % of control.

For `CC(NCCN1CC1)C1CC1` (stereo unspecified), the T/C (dose: 17.6 mg/kg/injection, schedule: Q01DX009 (ip), vehicle: saline) was 94 % of control, the T/C (dose: 26.4 mg/kg/injection, schedule: Q01DX009 (ip), vehicle: saline) was 100 % of control and the T/C (dose: 40.0 mg/kg/injection, schedule: Q01DX009 (ip), vehicle: saline) was 105 % of control. For the same compound, the T/C (dose: 60.0 mg/kg/injection, schedule: Q01DX009 (ip), vehicle: saline) was 117 % of control.

For `CC(=O)Oc1ccc(N2C(=O)C=CC2=O)cc1` (tested in a mixture with another compound), the T/C [5] was 95 % of control, the T/C [10] was 91 % of control and the T/C [6] was 91 % of control. For the same compound, the T/C [11] was 90 % of control, the T/C [7] was 91 % of control and the T/C [12] was 87 % of control.

With `CCCCN(CNC(C)=O)N=O` the T/C (dose: 100.0 mg/kg/injection, schedule: Q04DX002 (ip), vehicle: saline with Tween-80) was 95 % of control, the T/C (dose: 200.0 mg/kg/injection, schedule: Q04DX002 (ip), vehicle: saline with Tween-80) was 88 % of control and the T/C (dose: 400.0 mg/kg/injection, schedule: Q04DX002 (ip), vehicle: saline with Tween-80) was 100 % of control.

`CCCCCCOS(=O)OC(C)C(Cl)C(=O)OCC` (stereo unspecified) was tested, and the T/C [5] was 97 % of control, the T/C [6] was 97 % of control and the T/C [7] was 100 % of control.

From PubChem BioAssay AID256 (DTP/NCI, 2004)
